Tests used:
H3122 cells [1] = experiment: viability of H3122 cells, sulforodhamine B-based assay, regular medium (CTR) vs STS conditions; type: cell-based; conditions: H3122 NSCLC cells (EML4-ALK translocation); low glucose 0.5 g/L, 1% FBS (STS) vs regular medium; 72 h
Method: With reference to FIGS. 1A and 1B, 3×10^3 H3122 cells were plated in 96 well plates in regular DMEM medium containing 10% FBS. 24 h later, the cell medium was removed and cells were incubated for 24 h either in the same medium (CTR) or in low-glucose (0.5 g/L) DMEM medium containing 1% FBS (STS). 24 h later cells were treated or not with the indicated concentrations of Crizotinib or […] (TAE). 72 h later, viability was measured with sulforodhamine B-based assays.

H3122 cells [2] = experiment: H3122 cells in Petri dishes, sulforodhamine B staining after treatment and recovery; type: cell-based; conditions: H3122, STS conditions, 400 nM, 5 days then 2 days regular medium (FIG. 1C)
Method: With reference to FIG. 1C, 10^5 H3122 cells were plated in 60 mm Petri dishes in regular DMEM medium. 24 h later, the cell medium was removed and cells were incubated for 24 h either in regular medium (CTR) or in STS conditions. 24 h later 400 nM Crizotinib was added (or not) to the cells. 5 days later, the cell medium was removed and the cells were cultured for two additional days in regular DMEM medium. 48 h later, the plates were stained with sulforodhamine B and photographed.

A549 cells = experiment: viability of A549 cells, sulforodhamine B-based assay, with or without STS; type: cell-based
Method: With reference to FIG. 1D, 3×10^3 A549 cells were plated in 96 well plates and treated with Crizotinib in the presence or absence of STS, as in the experiments of FIGS. 1A and 1B, before viability was measured in sulforodhamine B-based assays.

[3] = system: phospho-ERK (Thr202/Tyr204); experiment: immunoblotting of phospho-ERK and total ERK in H3122 cell lysates; type: cell-based; conditions: H3122, 400 nM, 24 h; starved cells compared with cells in standard conditions
Method: With reference to FIG. 1E, 10^5 H3122 cells were plated in 6 well plates in regular DMEM medium containing 10% FBS. 24 h later, the cell medium was removed and cells were incubated for 24 h either in the same medium (CTR) or in low-glucose (0.5 g/L) DMEM containing 1% FBS (STS). 24 h later cells were treated or not with 400 nM Crizotinib. After 24 h, cell were used for cell lysate preparation and phospho-ERK (Thr202/Tyr204), and total ERK levels were detected by immunoblotting.

[4] = system: H3122 cells engineered to overexpress HRAS or HRAS V12; experiment: sensitivity of H3122 cells engineered to overexpress HRAS or HRAS V12; type: cell-based; conditions: data not shown
H3122 xenografts = experiment: H3122 xenograft growth in mice; type: in vivo, BALB/c athymic mice (nu+/nu+)
Method: With reference to FIG. 2A, six- to eight-week-old BALB/c athymic mice (nu+/nu+) were injected s.c. with 5×10^6 H3122 cells. When tumors became palpable, mouse were randomly assigned to one of four arms (six mice per treatment arm): control—normal diet (—); Crizotinib—normal diet with 3 cycles of Crizotinib (25 mg/kg/day via oral gavage for 5 days a week, Mon-Fri); STS [fasting (water only) for 48 h (Sun-Tue) for three cycles at 1-week intervals]; STS+Crizotinib. Tumor size was measured daily and tumor volume was calculated using the formula: tumor volume=(w^2×W)×π/6, where “w” and “W” are “minor side” and “major side” (in mm), respectively. At the end of treatment, mice were euthanized and tumor masses were excised and weighted (see FIG. 2B). Mouse weight was also monitored daily.

SKBR3 cells = experiment: viability of SKBR3 cells, sulforodhamine B-based assay, CTR vs STS; type: cell-based; conditions: SKBR3 HER2+ BC cells, 100 nM, 72 h
Method: With reference to FIGS. 3A and 3B, 3×10^3 SKBR3 (FIG. 3A) or BT474 (FIG. 3B) cells/well were plated in 96 well plates in regular DMEM medium containing 10% FBS and 2.5 g/L glucose. 24 h later, the cell medium was removed and cells were incubated for 24 h either in the same medium (CTR) or in low-glucose (0.5 g/L) DMEM medium containing 1% FBS (STS). 24 h later cells were treated or not with 100 nM Lapatinib. 72 h later, viability was measured in sulforodhamine B-based assays.
With reference to FIGS. 3D and 3E, BT474 or MCF7 cells were plated as detailed with regard to FIGS. 3A and 3B, treated with 100 nM CP724714 (FIG. 3D) or Lapatinib (FIG. 3E) with or without STS conditions as detailed with respect to FIGS. 3A and 3B before viability was detected.

BT474 cells = experiment: viability of BT474 cells, sulforodhamine B-based assay, CTR vs STS; type: cell-based; conditions: BT474 HER2+ BC cells, 100 nM, 72 h
MCF7 cells = experiment: viability of MCF7 cells, with or without STS conditions; type: cell-based
AKT and ERK1/2 signaling [5] = experiment: immunoblotting of phospho-AKT, total AKT, phospho-ERK and total ERK in SKBR3 cell lysates; type: cell-based; conditions: SKBR3, 100 nM, 24 h; STS-mimicking conditions compared with Lapatinib alone (FIG. 4A)
Method: (§1) With reference to FIGS. 4A-C, 10^5 SKBR3 (FIG. 4A) or BT474 (FIG. 4B) cells were plated in 6 well plates in regular DMEM medium containing 10% FBS. 24 h later, the cell medium was removed and cells were incubated for 24 h either in the same medium (CTR) or in low-glucose (0.5 g/L) DMEM medium containing 1% FBS (STS). 24 h later cells were treated or not with 100 nM Lapatinib. After 24 h, cell were either used for cell lysate preparation or for flow cytometry assays. Cell lysates were used for phospho-AKT (Ser473), total AKT, phospho-ERK (Thr202/Tyr204), and total ERK level detection by immunoblotting (FIGS. 4A and 4B). Flow cytometry (with a FACS Calibur, BD) was used to estimate cell size (FSC) by acquiring 10,000 events per cell sample (FIG. 4C).

AKT and ERK1/2 signaling [6] = experiment: immunoblotting of phospho-AKT, total AKT, phospho-ERK and total ERK in BT474 cell lysates; type: cell-based; conditions: BT474, 100 nM, 24 h; STS-mimicking conditions compared with Lapatinib alone (FIG. 4B)
Method: as §1

Row | SMILES | effect of STS conditions on activity (viability of H3122 cells) (H3122 cells [1]) | killing of NSCLC cells (H3122 cells [2]) | sensitivity of A549 cells (viability) (A549 cells; A549 NSCLC cells without EML4-ALK translocation) | effect of STS on activity in A549 cells (A549 cells; A549 cells, STS vs regular medium) | blocking of MAPK pathway signaling (ERK1/2 phosphorylation) [3] | sensitivity of HRAS or HRAS V12 overexpressing H3122 cells [4] | activity on H3122 xenografts of the combination with fasting (H3122 xenografts; 25 mg/kg/day oral gavage plus 48 h fasting cycles, compared with each treatment alone, p<0.05) | growth of H3122 xenografts (H3122 xenografts; normal diet, 25 mg/kg/day oral gavage, 5 days a week, 3 cycles) | sensitization by STS conditions (viability of SKBR3 cells) (SKBR3 cells) | sensitization by STS conditions (viability of BT474 cells) (BT474 cells) | sensitivity of MCF7 cells (viability) (MCF7 cells; MCF7 cells without HER2 amplification, 100 nM) | effect of STS on activity in MCF7 cells (MCF7 cells; MCF7 cells, STS vs CTR) | inhibition of AKT and ERK1/2 signaling (AKT and ERK1/2 signaling [5]) | inhibition of AKT and ERK1/2 signaling (AKT and ERK1/2 signaling [6])
1 | C[C@@H](Oc1cc(-c2cnn(C3CCNCC3)c2)cnc1N)c1c(Cl)ccc(F)c1Cl [Crizotinib] | strongly potentiated | virtual complete killing | insensitive | did not increase the activity | more effective at blocking signaling through the MAPK pathway | resistant | more active than either type of treatment alone | effectively reduced the growth | – | – | – | – | – | –
2 | CS(=O)(=O)CCNCc1ccc(-c2ccc3ncnc(Nc4ccc(OCc5cccc(F)c5)c(Cl)c4)c3c2)o1 [Lapatinib] | – | – | – | – | – | – | – | – | strongly sensitized | strongly sensitized | insensitive | failed to enhance the activity | more pronounced inhibition | more pronounced inhibition
3 | COc1cc(N2CCC(N3CCN(C)CC3)CC2)ccc1Nc1ncc(Cl)c(Nc2ccccc2S(=O)(=O)C(C)C)n1 [TAE684] | strongly potentiated | – | – | – | – | – | – | – | – | – | – | – | – | –

Reference: patent publication US10512648B2, “Tyrosine kinase inhibitors for use in a method of treating cancer in association with a reduced caloric intake” (UNIVERSITÀ DEGLI STUDI DI GENOVA, priority 2014, dated 2019)
